Data taken from article PMC10975061, “Cellular Uptake and Transport Mechanism Investigations of PEGylated Niosomes for Improving the Oral Delivery of Thymopentin” (Pharmaceutics, 2024).
Like-named read-outs stand apart in the source and are kept apart here. Peptide text beside a SMILES is read from it.

Assays:
[1] = test system: Caco-2 and HT-29 co-cultured cells; assay: MTT cytotoxicity (cell viability) assay
Method: MTT assay was used for the cytotoxicity study. […] The DMEM was discarded, and the Caco-2 and HT-29 co-cultured cells were washed with PBS before introducing TP5 test samples. […] Subsequently, 20 μL of MTT (5 mg/mL) was added, and the cells were incubated for an additional 4 h. Dimethyl sulfoxide (DMSO) was introduced to dissolve the formazan crystals, and the absorbance at 570 nm was measured using a microplate UV-Vis spectrophotometer (SpectraMax® Plus, Molecular Devices, San Jose, CA, USA). The percentage of cell viability was calculated in comparison to the untreated control group.
For each test sample group and at every time point over the course of three days, cell viability was computed. The outcomes were consolidated using the SoftMax Pro v5 software system through Equation (1). (1) V=A/A0×100% where V is the cell viability, A is sample absorbance, and A0 is control absorbance.
The concentration of these selected inhibitors and enhancers was screened by cytotoxicity using Caco-2 and HT-29 co-cultured cells by MTT assay. Then, these inhibitors and enhancers with safe concentrations were added to the AP side with a 0.5 mL 1 mg/mL solution of TP5 and TP5-PEG-niosomes, respectively. All inhibitors were dissolved in dimethyl sulfoxide and diluted with HBSS. The transport characteristics of TP5 and TP5-PEG-niosomes through Caco-2 and HT-29 co-cultured cell monolayers were expressed as the cumulative transported drug and transport rate. The transport rate (Flux) was denoted in μg/min/cm^2 and computed using the formula Flux = (dM/dt)/A, where dM/dt represents the cumulative amount of TP5 in the BL side per unit time (µg/min), and A is the surface area of the insert membrane (1.1 cm^2). […] The TEER values of the monolayers were assessed at 1 h intervals throughout the experimental duration, guaranteeing the integrity of the monolayers.

[2] = Transepithelial transport across Transwell monolayers (AP to BL), with inhibitors and enhancers; assay type: in vitro ADME, human; conditions: apical to basolateral, 6 h
Method: (§1) Caco-2 and HT-29 co-cultured cells at a density of 10^5 cells/cm^2 were seeded on 12-well Insert Transwell® inserts (0.4 µm pore diameter, 1.1 cm^2 area, Corning, New York, NY, USA). Caco-2 and HT-29 co-cultured cells were incubated at 37 °C in an atmosphere of 5% CO2 and 95% relative humidity in complete DMEM. The medium was replaced every 3 days with 0.5 mL medium on the apical (AP) side and 1.5 mL on the basolateral (BL) side, as shown in Figure 2. The integrity of the co-cultured cell monolayer was assessed by monitoring transepithelial electrical resistance (TEER). TEER measurements were conducted using a Millicell-ERS Volt-Ohm meter connected to a pair of chopstick electrodes (Millipore Corp, Boston, MA, USA). […] TEER measurements were taken at 3-day intervals until the TEER values surpassed 350 Ω·cm^2 (around 24 days post-seeding in this study). The TEER calculation utilized the formula TEER = (Rm − Rb) × A, where Rm, Rb, and A represent the measured TEER values, TEER values of the blank transwell, and the membrane surface area of the transwell (1.13 cm^2), respectively. Caco-2 monolayers with TEER values exceeding 350 Ω·cm^2 were deemed to have acceptable integrity and were considered suitable for the transport study.
(§2) Before the transport experiments, Caco-2 and HT-29 co-cultured cell monolayers underwent equilibration with HBSS for 30 min and were subsequently aspirated. All transport studies were carried out at 37 °C. A 0.5 mL solution of TP5 and TP5-PEG-niosomes (0.1 mg TP5 per mL in HBSS) was introduced on the AP side, while the BL side of the inserts contained 1.5 mL of HBSS, as depicted in Figure 2. At 0, 60, 120, 240, and 360 min of incubation, 200 µL was withdrawn from the BL-receiving chamber and immediately replaced with an equal volume of pre-warmed HBSS (37 °C). The concentration of TP5 in the transport medium was analyzed using RP-HPLC.
(§3) TP5 transport mechanisms were investigated in the absence or presence of variable inhibitors or enhancers. […] […].

[3] = test system: Caco-2 and HT-29 co-cultured cell monolayers; assay: as above; assay type: in vitro ADME, human
Method: as §1, §2, §3

[4] = test system: Caco-2 and HT-29 co-cultured cells; assay: Quantitative cellular uptake of TP5 (RP-HPLC and BCA protein assay), with inhibitors and low temperature; assay type: in vitro ADME, human
Method: Briefly, 5 mL of Caco-2 and HT-29 co-cultured cells’ suspension at a density of 10^5 cells/cm^2 was seeded onto 60 mm plastic dishes (Corning, New York, NY, USA), fed complete DMEM every 3 days and incubated at 37 °C in an atmosphere of 5% CO2 and 95% relative humidity. […] Then, 25 µL of the cell lysates from each well were subjected to a BCA protein assay (Thermo Scientific, Waltham, MA, USA) to determine the amount of cell protein. The entire protein concentration in each group was calculated based on the linearity equation obtained from the BSA standard curve. Then, cell lysates were centrifuged for 15 min at 14,000 rpm, and the supernatants were analyzed for the amount of uptake TP5 using the RP-HPLC method mentioned earlier. The uptake of TP5 by Caco-2 and HT-29 co-cultured cells was calculated and expressed as the amount of drug (ng) uptake per µg cell protein. One of the mechanisms for cellular uptake depends on concentration. […] The treated Caco-2 and HT-29 co-cultured cells were then scraped off into a 2 mL microcentrifuge tube containing 1.0 mL extraction solution (10% Triton X-100) and sonicated to accelerate cell lysis. Then, 25 µL of the cell lysates from each well were subjected to a BCA protein assay (Thermo Scientific, Waltham, MA, USA) to determine the amount of cell protein as mentioned above. Then, cell lysates were centrifuged for 15 min at 14,000 rpm, and the supernatants were analyzed for the amount of uptake TP5 using the RP-HPLC method mentioned above. The uptake of TP5 by Caco-2 and HT-29 co-cultured cells was calculated and expressed as the amount of drug (ng) uptake per µg cell protein. […] The incubation temperature of 4 °C was also tested. After the removal of the drug solution and formulation (4 h incubation), the dishes were immediately rinsed twice with ice-cold HBSS solution (5 mL). The treated Caco-2 and HT-29 co-cultured cells were then scraped off into a 2 mL microcentrifuge tube containing 1.0 mL extraction solution (10% Triton X-100) and sonicated to accelerate cell lysis. Furthermore, 25 µL of the cell lysates from each well were subjected to a BCA protein assay (Thermo Scientific, Waltham, MA, USA) to determine the amount of cell protein mentioned above. Then, cell lysates were centrifuged for 15 min at 14,000 rpm, and the supernatants were analyzed for the amount of cellular uptake TP5 using the RP-HPLC method mentioned above. The uptake of TP5 by Caco-2 and HT-29 co-cultured cells was calculated and expressed as the amount of drug (ng) uptake per µg cell protein.

CN(C)CCCN1c2ccccc2Sc2ccc(Cl)cc21 [chlorpromazine]
safe but still effective concentration for treatment ([1]; human, 72 h): 10 µg/mL

CN(C)C(=O)CCSC(SCCC(=O)O)c1cccc(/C=C/c2ccc3ccc(Cl)cc3n2)c1 (stereo not shown) [MK-571]
safe but still effective concentration for treatment ([1]; MTT, 72 h at 37 °C): 0.1 mM

[N-]=[N+]=[N-].[Na+] [sodium azide]
safe but still effective concentration for treatment ([1]; MTT, 72 h at 37 °C): 20 mM

C[C@H](CCC(=O)NCCS(=O)(=O)O)[C@H]1CC[C@H]2[C@@H]3[C@H](O)C[C@@H]4C[C@H](O)CC[C@]4(C)[C@H]3C[C@H](O)[C@]12C [Sodium taurocholate]
safe but still effective concentration for treatment ([1]; MTT, 72 h at 37 °C): 20 mM

CC(C)[C@H](NC(=O)[C@H](CC(=O)O)NC(=O)[C@H](CCCCN)NC(=O)[C@@H](N)CCCN=C(N)N)C(=O)N[C@@H](Cc1ccc(O)cc1)C(=O)O [TP5, thymopentin] (H-RKDVY-OH)
cytotoxicity (MTT cell viability) ([1]; TP5 solutions 0.005 to 10 mg/mL, 24, 48 and 72 h): not toxic
Papp A→B ([2]; EDTA (10 mM), read-out: Papp values): 0.142 ± 0.0089 ×10⁻⁶ cm/s
Papp A→B ([2]; chlorpromazine (10 μg/mL), read-out: Papp values): 0.0573 ± 0.0063 ×10⁻⁶ cm/s
Papp A→B ([2]; lowest to highest over no treatment, inhibitors and enhancers, read-out: range of Papp values over all treatments): 0.043 to 0.134 ×10⁻⁶ cm/s
Papp A→B ([2]; no treatment, read-out: Papp values): 0.0539 ± 0.0046 ×10⁻⁶ cm/s
Papp A→B ([2]; silymarin (20 µM), read-out: Papp values): 0.043 ± 0.0055 ×10⁻⁶ cm/s
Papp A→B ([2]; sodium azide (20 mM), read-out: Papp values): 0.059 ± 0.0052 ×10⁻⁶ cm/s
Papp A→B ([2]; sodium taurocholate (20 mM), read-out: Papp values): 0.134 ± 0.0052 ×10⁻⁶ cm/s
TP5 cumulative amount with EDTA ([3]; EDTA group, after the first 60 min): increase sharply
cumulative amount of TP5 transported, comparison between groups ([3]; no treatment, AP to BL): no significant difference
TP5 cumulative amount with sodium taurocholate ([3]; sodium taurocholate group, after the first 60 min): increase sharply
cellular uptake amount with adsorptive-mediated endocytosis inhibitor ([4]; 1 mM protamine sulphate, 4 h, p < 0.005): significantly reduced
cellular uptake amount at low temperature ([4]; 4 °C, 4 h): significantly decreased
time of highest amount of cellular uptake drug ([4]; HPLC and BCA assay, time course 0.5-5 h): 2 h
cellular uptake value ([4]; pure drug solution, in 2 h, maintained afterwards): 3.56 ± 1.13 ng/µg
